Each compound was assayed against T1, recombinant murine Aurora A enzyme (Mus musculus, UniProt P97477) (assay: Aurora A DELFIA Kinase Assay). Settings: not given.
T1 construct: hexahistidine (His6) (N); made in house; host or cells: insect cells, baculovirus (Bac-to-Bac, Invitrogen)
T1 sequence (P97477 whole entry): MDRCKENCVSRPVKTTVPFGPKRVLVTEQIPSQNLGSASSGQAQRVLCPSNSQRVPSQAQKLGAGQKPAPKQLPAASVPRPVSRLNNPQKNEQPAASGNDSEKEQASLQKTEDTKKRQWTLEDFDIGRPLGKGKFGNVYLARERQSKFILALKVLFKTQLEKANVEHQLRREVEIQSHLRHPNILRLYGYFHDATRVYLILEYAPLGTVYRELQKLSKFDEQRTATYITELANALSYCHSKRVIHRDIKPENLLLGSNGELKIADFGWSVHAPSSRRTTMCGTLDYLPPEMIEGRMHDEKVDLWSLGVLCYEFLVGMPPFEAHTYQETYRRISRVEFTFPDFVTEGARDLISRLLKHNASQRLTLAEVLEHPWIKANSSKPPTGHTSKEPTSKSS
Type: biochemical
In the case of `CC1N=C(c2c(F)cccc2F)c2cc(Cl)ccc2-c2nc(Nc3ccc(C(=O)O)cc3)ncc21` (stereo not shown) [Compound I-371, 4-{[9-chloro-7-(2,6-difluorophenyl)-5-methyl-5H-pyrimido[5,4-d][2]benzazepin-2-yl]amino}benzoic acid], the IC50 is reported as no more than 100 nM.

Same assay, conditions: mouse Aurora A, 250 μM ATP; threshold less than or equal to 100 nM; read-out: IC50
Work on `NC(=O)Cc1cccc(Nc2ncc3c(n2)-c2ccc(Cl)cc2C(c2ccccc2Cl)=NC3)c1` [Compound I-66, 2-{3-[9-Chloro-7-(2-chloro-phenyl)-5H-benzo[c]pyrimido[4,5-e]azepin-2-ylamino]-phenyl}-acetamide] yielded an IC50 of no more than 100 nM.
In the case of `CNC1CN(C(=O)c2cc(Nc3ncc4c(n3)-c3ccc(Cl)cc3C(c3c(F)cccc3F)=NC4)ccc2Cl)C1` [Compound I-291, 9-chloro-N-(4-chloro-3-{[3-(methylamino)azetidin-1-yl]carbonyl}phenyl)-7-(2,6-difluorophenyl)-5H-pyrimido[5,4-d][2]benzazepin-2-amine], the IC50 is reported as no more than 100 nM.
With `O=C(O)c1ccc(Nc2ncc3c(n2)-c2ccc(Cl)cc2C(c2ncccc2F)=NC3)cc1` [Compound I-301, 4-{[9-chloro-7-(3-fluoropyridin-2-yl)-5H-pyrimido[5,4-d][2]benzazepin-2-yl]amino}benzoic acid] the IC50 was no more than 100 nM.
Compound `CNCCCN(C)C(=O)c1ccc(Nc2ncc3c(n2)-c2ccc(Cl)cc2C(c2c(F)cccc2OC)=NC3)cc1` [Compound I-261, 4-{[9-chloro-7-(2-fluoro-6-methoxyphenyl)-5H-pyrimido[5,4-d][2]benzazepin-2-yl]amino}-N-methyl-N-[3-(methylamino)propyl]benzamide] has an IC50 of no more than 100 nM.
In the case of `CNC1CCN(C(=O)c2ccc(Nc3ncc4c(n3)-c3ccc(Cl)cc3C(c3c(F)cccc3F)=NC4)cc2)C1` (stereo not shown) [Compound I-197, {4-[9-Chloro-7-(2,6-difluoro-phenyl)-5H-benzo[c]pyrimido[4,5-e]azepin-2-ylamino]-phenyl}-(3-methylamino-pyrrolidin-1-yl)-methanone], the IC50 is reported as no more than 100 nM.
`Cc1ccc2c(c1)C(c1ccccc1F)=NCc1cnc(Nc3ccc(C(=O)NCCCN4CCN(C)CC4)cc3)nc1-2` [Compound I-24, 4-[7-(2-Fluoro-phenyl)-9-methyl-5H-benzo[c]pyrimido[4,5-e]azepin-2-ylamino]-N-[3-(4-methyl-piperazin-1-yl)-propyl]-benzamide] was tested, and the IC50 was no more than 100 nM.
Work on `O=C(O)c1ccc(Nc2ncc3c(n2)-c2ccc(Cl)cc2C(c2c(F)cccc2F)=NC3)cc1` [Compound I-135, 4-[9-Chloro-7-(2,6-difluoro-phenyl)-5H-benzo[c]pyrimido[4,5-e]azepin-2-ylamino]-benzoic acid] yielded an IC50 of no more than 100 nM.
With `CCOC(=O)C1CN=C(c2ccc(Nc3ncc4c(n3)-c3ccc(Cl)cc3C(c3c(F)cccc3F)=NC4)cc2)N1` (stereo not shown) [Compound I-314, ethyl 2-(4-{[9-chloro-7-(2,6-difluorophenyl)-5H-pyrimido[5,4-d][2]benzazepin-2-yl]amino}phenyl)-4,5-dihydro-1H-imidazole-5-carboxylate] the IC50 was no more than 100 nM.
Compound `CN(C)C1CCCN(C(=O)c2ccc(Nc3ncc4c(n3)-c3ccc(Cl)cc3C(c3c(F)cccc3F)=NC4)cc2)C1` (stereo not shown) [Compound I-293, 9-chloro-7-(2,6-difluorophenyl)-N-(4-{[3-(dimethylamino)piperidin-1-yl]carbonyl}phenyl)-5H-pyrimido[5,4-d][2]benzazepin-2-amine] has an IC50 of no more than 100 nM.
With `O=C(O)c1ccc(Nc2ncc3c(n2)-c2ccc(Cl)cc2C(c2ccccc2Cl)=NC3)cc1O` [Compound I-86, 4-[9-Chloro-7-(2-chloro-phenyl)-5H-benzo[c]pyrimido[4,5-e]azepin-2-ylamino]-2-hydroxy-benzoic acid] the IC50 was no more than 100 nM.
With `CNCCCN(C)C(=O)c1ccc(Nc2ncc3c(n2)-c2ccc(Cl)cc2C(c2c(F)cccc2F)=NC3)cc1` [Compound I-198, 4-[9-Chloro-7-(2,6-difluoro-phenyl)-5H-benzo[c]pyrimido[4,5-e]azepin-2-ylamino]-N-methyl-N-(3-methylamino-propyl)-benzamide] the IC50 was no more than 100 nM.
For `O=C(O)C1CN=C(c2ccc(Nc3ncc4c(n3)-c3ccc(Cl)cc3C(c3c(F)cccc3F)=NC4)cc2)N1` (stereo not shown) [Compound I-306, 2-(4-{[9-chloro-7-(2,6-difluorophenyl)-5H-pyrimido[5,4-d][2]benzazepin-2-yl]amino}phenyl)-4,5-dihydro-1H-imidazole-5-carboxylic acid], the IC50 was no more than 100 nM.
`CN(C)C1CCN(C(=N)NC(=O)c2ccc(Nc3ncc4c(n3)-c3ccc(Cl)cc3C(c3c(F)cccc3F)=NC4)cc2)CC1` [Compound I-223, 4-{[9-chloro-7-(2,6-difluorophenyl)-5H-pyrimido[5,4-d][2]benzazepin-2-yl]amino}-N-[[4-(dimethylamino)piperidin-1-yl](imino)methyl]benzamide] gave an IC50 of no more than 100 nM.
Work on `O=C(O)c1ccc(Nc2ncc3c(n2)-c2ccc(F)cc2C(c2ccccc2F)=NC3)cc1` [Compound I-57, 4-[9-Fluoro-7-(2-fluoro-phenyl)-5H-benzo[c]pyrimido[4,5-e]azepin-2-ylamino]-benzoic acid] yielded an IC50 of no more than 100 nM.
`CNC1CCN(C(=O)c2ccc(Nc3ncc4c(n3)-c3ccc(Cl)cc3C(c3ccccc3OC)=NC4)cc2)CC1` [Compound I-331, 9-chloro-7-(2-methoxyphenyl)-N-(4-{[4-(methylamino)piperidin-1-yl]carbonyl}phenyl)-5H-pyrimido[5,4-d][2]benzazepin-2-amine] showed an IC50 of no more than 100 nM.
`CCCN(CCC)CCN1CCN(C(=O)c2ccc(Nc3ncc4c(n3)-c3ccc(Cl)cc3C(c3ccccc3F)=NC4)cc2)CC1` [Compound I-187, {4-[9-Chloro-7-(2-fluoro-phenyl)-5H-benzo[c]pyrimido[4,5-e]azepin-2-ylamino]-phenyl}-[4-(2-dipropylamino-ethyl)-piperazin-1-yl]-methanone] gave an IC50 of no more than 100 nM.
With `CN1CCN(C(=O)c2ccc(Nc3ncc4c(n3)-c3ccc(Cl)cc3C(c3ccccc3F)=NC4)cc2)CC1` [Compound I-9, {4-[9-Chloro-7-(2-fluoro-phenyl)-5H-benzo[c]pyrimido[4,5-e]azepin-2-ylamino]-phenyl}-(4-methyl-piperazin-1-yl)-methanone] the IC50 was no more than 100 nM.
`NC1CCN(C(=O)c2ccc(Nc3ncc4c(n3)-c3ccc(Cl)cc3C(c3c(F)cccc3F)=NC4)cc2)CC1` [Compound I-239, N-{4-[(4-aminopiperidin-1-yl)carbonyl]phenyl}-9-chloro-7-(2,6-difluorophenyl)-5H-pyrimido[5,4-d][2]benzazepin-2-amine] was tested, and the IC50 was no more than 100 nM.
With `O=C(O)C1CCCN1C(=O)c1ccc(Nc2ncc3c(n2)-c2ccc(Cl)cc2C(c2ccccc2F)=NC3)cc1` (stereo not shown) [Compound I-112, 1-{4-[9-Chloro-7-(2-fluoro-phenyl)-5H-benzo[c]pyrimido[4,5-e]azepin-2-ylamino]-benzoyl}-pyrrolidine-2-carboxylic acid] the IC50 was no more than 100 nM.
In the case of `CN(C)C1CCN(C(=O)c2ccc(Nc3ncc4c(n3)-c3ccc(Cl)cc3C(c3ccccc3F)=NC4)cc2)C1` (stereo not shown) [Compound I-100, {4-[9-Chloro-7-(2-fluoro-phenyl)-5H-benzo[c]pyrimido[4,5-e]azepin-2-ylamino]-phenyl}-(3-dimethylamino-pyrrolidin-1-yl)-methanone], the IC50 is reported as no more than 100 nM.
In the case of `CN1CCN(C(=O)c2cccc(Nc3ncc4c(n3)-c3ccc(Cl)cc3C(c3ccccc3F)=NC4)c2)CC1` [Compound I-163, {3-[9-Chloro-7-(2-fluoro-phenyl)-5H-benzo[c]pyrimido[4,5-e]azepin-2-ylamino]-phenyl}-(4-methyl-piperazin-1-yl)-methanone], the IC50 is reported as no more than 100 nM.
`COc1cccc(F)c1C1=NCc2cnc(Nc3cccc(C(=O)N4CC(C)NC(C)C4)c3)nc2-c2ccc(Cl)cc21` (stereo not shown) [Compound I-228, 9-chloro-N-{3-[(3,5-dimethylpiperazin-1-yl)carbonyl]phenyl}-7-(2-fluoro-6-methoxyphenyl)-5H-pyrimido[5,4-d][2]benzazepin-2-amine] showed an IC50 of no more than 100 nM.
`NC1CCCN(C(=O)c2ccc(Nc3ncc4c(n3)-c3ccc(Cl)cc3C(c3c(F)cccc3F)=NC4)cc2)C1` (stereo not shown) [Compound I-221] gave an IC50 of no more than 100 nM.
Work on `CNC(=O)c1csc(Nc2ncc3c(n2)-c2ccc(Cl)cc2C(c2c(F)cccc2F)=NC3)n1` [Compound I-355, 2-{[9-chloro-7-(2,6-difluorophenyl)-5H-pyrimido[5,4-d][2]benzazepin-2-yl]amino}-N-methyl-1,3-thiazole-4-carboxamide] yielded an IC50 of no more than 100 nM.
`CN(C)CCN(C)C(=O)c1ccc(Nc2ncc3c(n2)-c2ccc(Cl)cc2C(c2c(F)cccc2F)=NC3)cc1` [Compound I-247, 4-{[9-chloro-7-(2,6-difluorophenyl)-5H-pyrimido[5,4-d][2]benzazepin-2-yl]amino}-N-[2-(dimethylamino)ethyl]-N-methylbenzamide] showed an IC50 of no more than 100 nM.
Work on `CNC1CCCN(C(=O)c2ccc(Nc3ncc4c(n3)-c3ccc(Cl)cc3C(c3c(F)cccc3OC)=NC4)cc2)C1` (stereo not shown) [Compound I-263, 9-chloro-7-(2-fluoro-6-methoxyphenyl)-N-(4-{[3-(methylamino)piperidin-1-yl]carbonyl}phenyl)-5H-pyrimido[5,4-d][2]benzazepin-2-amine] yielded an IC50 of no more than 100 nM.
`CNC1CN(C(=O)c2ccc(Nc3ncc4c(n3)-c3ccc(Cl)cc3C(c3c(F)cccc3F)=NC4)cc2)C1` [Compound I-234, 9-chloro-7-(2,6-difluorophenyl)-N-(4-{[3-(methylamino)azetidin-1-yl]carbonyl}phenyl)-5H-pyrimido[5,4-d][2]benzazepin-2-amine] showed an IC50 of no more than 100 nM.
For `CN(C)CCC(=O)c1cccc(Nc2ncc3c(n2)-c2ccc(Cl)cc2C(c2c(F)cccc2F)=NC3)c1` [Compound I-359, 1-(3-{[9-chloro-7-(2,6-difluorophenyl)-5H-pyrimido[5,4-d][2]benzazepin-2-yl]amino}phenyl)-3-(dimethylamino)propan-1-one], the IC50 was no more than 100 nM.
With `O=S(=O)(O)c1ccc(Nc2ncc3c(n2)-c2ccc(Cl)cc2C(c2ccccc2F)=NC3)cc1` [Compound I-67, 4-[9-Chloro-7-(2-fluoro-phenyl)-5H-benzo[c]pyrimido[4,5-e]azepin-2-ylamino]-benzenesulfonic acid] the IC50 was no more than 100 nM.
Compound `CC1CN(C(=O)c2ccc(Nc3ncc4c(n3)-c3ccc(Cl)cc3C(c3ccccc3F)=NC4)cc2)CCN1` (stereo not shown) [Compound I-113, {4-[9-Chloro-7-(2-fluoro-phenyl)-5H-benzo[c]pyrimido[4,5-e]azepin-2-ylamino]-phenyl}-(3-methyl-piperazin-1-yl)-methanone] has an IC50 of no more than 100 nM.
